From patent US12673944B2, “Compounds having inhibitory activity against glucosylceramide synthase or pharmaceutically acceptable salt thereof, processes for preparing the same, and pharmaceutical compositions comprising the same” (YUHAN CORPORATION, priority 2019, dated 2026) come the findings set out here.

Experiment [1] deals with T1, glucosylceramide synthase (GCS) (Homo sapiens, UniProt Q16739).
T1 construct: The obtained supernatant was used; host or cells: A549 cells (lysate supernatant after sonication)
T1 sequence (Q16739 1-394): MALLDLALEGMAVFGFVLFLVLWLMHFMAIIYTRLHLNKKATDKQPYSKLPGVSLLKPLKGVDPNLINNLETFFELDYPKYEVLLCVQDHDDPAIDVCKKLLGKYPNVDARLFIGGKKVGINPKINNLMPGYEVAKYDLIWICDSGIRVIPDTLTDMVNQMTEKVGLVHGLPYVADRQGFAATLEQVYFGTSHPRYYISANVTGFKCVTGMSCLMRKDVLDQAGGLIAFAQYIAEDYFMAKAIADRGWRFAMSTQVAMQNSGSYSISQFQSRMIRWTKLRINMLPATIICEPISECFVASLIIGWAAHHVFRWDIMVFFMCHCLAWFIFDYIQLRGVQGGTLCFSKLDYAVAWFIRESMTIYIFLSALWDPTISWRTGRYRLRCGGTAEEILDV
The experiment is described as follows: GCS enzyme inhibition assay (A549 cell lysate, NBD C6-ceramide, HPLC fluorescence). The format is biochemical. Conditions: inhibitory activity against GCS, 37° C., 90 minutes. The method, boiled down: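 Percent GCS activity was derived from the GlcCer share of Cer plus GlcCer areas, scaled from ibiglustat (0%) to DMSO (100%). Enzyme came from sonicated A549 lysate in 50 mM HEPES pH 7.3; 90 min incubation at 37° C, chloroform/methanol stop and extraction.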

Experiment [2] deals with GM1 production in Jurkat cells. Put plainly: cells. The format is cell-based. Conditions: Homo sapiens, Jurkat, 72 h.

For orientation: IC50 means the concentration that inhibits the measured activity by half. With `COc1cc(-c2ccc3c(c2)OCCC3NC(=O)O[C@@H]2CN3CCC2CC3)ccn1` (stereo partly drawn) [Example 68, (S)-quinuclidin-3-yl (7-(2-methoxypyridin-4-yl)chroman-4-yl)carbamate], the results for the IC50 in experiment [1] and in experiment [2] were 0.00365 µM and 0.0283 µM, respectively.
Regarding `CN(C)c1cc(-c2ccc3c(c2)OCCC3NC(=O)O[C@@H]2CN3CCC2CC3)ccc1F` (stereo partly drawn) [Example 69, (S)-quinuclidin-3-yl (7-(3-(dimethylamino)-4-fluorophenyl)chroman-4-yl)carbamate], the IC50 came out at 0.00191 µM in experiment [1] and 0.00893 µM in experiment [2].
On the same counts, the results for `O=C(NC1CCOc2cc(-c3ccc4c(c3)CCCO4)ccc21)O[C@@H]1CN2CCC1CC2` (stereo partly drawn) [Example 70, (S)-quinuclidin-3-yl [6,7′-bichroman]-4′-ylcarbamate] are 0.00059 µM and 0.00578 µM.
On the same counts, the results for `COc1ncc(-c2ccc3c(c2)OCCC3NC(=O)O[C@@H]2CN3CCC2CC3)cc1C(F)(F)F` (stereo partly drawn) [Example 71, (S)-quinuclidin-3-yl (7-(6-methoxy-5-(trifluoromethyl)pyridin-3-yl)chroman-4-yl)carbamate] are 0.0053 µM and 0.0388 µM.
On to `O=C(NC1CCOc2cc(-c3cnn(Cc4ccccc4)c3)ccc21)O[C@@H]1CN2CCC1CC2` (stereo partly drawn) [Example 72, (S)-quinuclidin-3-yl (7-(1-benzyl-1H-pyrazol-4-yl)chroman-4-yl)carbamate], for which the results for the IC50 in experiment [1] and in experiment [2] were 0.00092 µM and 0.0128 µM, respectively.
Turning to `O=C(NC1CCOc2cc(-c3ccc(C4CCOCC4)cc3)ccc21)O[C@@H]1CN2CCC1CC2` (stereo partly drawn) [Example 73, (S)-quinuclidin-3-yl (7-(4-(tetrahydro-2H-pyran-4-yl)phenyl)chroman-4-yl)carbamate], the IC50 in experiment [1] worked out at 0.00147 µM; in experiment [2], 0.0282 µM.
For `CN1C(=O)COc2ccc(-c3ccc4c(c3)OCCC4NC(=O)O[C@@H]3CN4CCC3CC4)cc21` (stereo partly drawn) [Example 74, (S)-quinuclidin-3-yl (7-(4-methyl-3-oxo-3,4-dihydro-2H-benzo[b][1,4]oxazin-6-yl)chroman-4-yl)carbamate], the figures for the IC50 in experiment [1] and in experiment [2] were 0.00503 µM and 0.0443 µM, respectively.
With `Cc1cc(-c2ccc3c(c2)OCCC3NC(=O)O[C@@H]2CN3CCC2CC3)ccc1N1CCOCC1` (stereo partly drawn) [Example 75, (S)-quinuclidin-3-yl (7-(3-methyl-4-morpholinophenyl)chroman-4-yl)carbamate], the half-maximal inhibitory concentration (IC50) in experiment [1] came out at 0.00244 µM; in experiment [2], 0.0236 µM.
On the same counts, the results for `O=C(NC1CCOc2cc(-c3ccc(N4CCOCC4)c(Cl)c3)ccc21)O[C@@H]1CN2CCC1CC2` (stereo partly drawn) [Example 76, (S)-quinuclidin-3-yl (7-(3-chloro-4-morpholinophenyl)chroman-4-yl)carbamate] are 0.00194 µM and 0.0292 µM.
With `O=C(NC1CCOc2cc(-c3ccc(N4CCOCC4)c(F)c3)ccc21)O[C@@H]1CN2CCC1CC2` (stereo partly drawn) [Example 77, (S)-quinuclidin-3-yl (7-(3-fluoro-4-morpholinophenyl)chroman-4-yl)carbamate], the values for the IC50 in experiment [1] and in experiment [2] were 0.00333 µM and 0.0287 µM, respectively.
`Cc1ccc(-c2ccc3c(c2)OCCC3NC(=O)O[C@@H]2CN3CCC2CC3)cc1C#N` (stereo partly drawn) [Example 78, (S)-quinuclidin-3-yl (7-(3-cyano-4-methylphenyl)chroman-4-yl)carbamate]: the IC50 in experiment [1] was 0.00126 µM; in experiment [2], 0.0273 µM.
In the case of `COc1cncc(-c2ccc3c(c2)OCCC3NC(=O)O[C@@H]2CN3CCC2CC3)c1` (stereo partly drawn) [Example 79, (S)-quinuclidin-3-yl (7-(5-methoxypyridin-3-yl)chroman-4-yl)carbamate], the IC50 worked out at 0.00257 µM in experiment [1] and 0.0334 µM in experiment [2].
On the same counts, the results for `COc1ncc(-c2ccc3c(c2)OCCC3NC(=O)O[C@@H]2CN3CCC2CC3)cc1Cl` (stereo partly drawn) [Example 80, (S)-quinuclidin-3-yl (7-(5-chloro-6-methoxypyridin-3-yl)chroman-4-yl)carbamate] are 0.00575 µM and 0.0442 µM.
In the case of `O=C(NC1CCOc2cc(-c3ccc(OCC4CC4)nc3)ccc21)O[C@@H]1CN2CCC1CC2` (stereo partly drawn) [Example 81, (S)-quinuclidin-3-yl (7-(6-(cyclopropylmethoxy)pyridin-3-yl)chroman-4-yl)carbamate], the IC50 in experiment [1] stood at 0.00094 µM; in experiment [2], 0.0148 µM.
`CC(C)Oc1ccc(-c2ccc3c(c2)OCCC3NC(=O)O[C@@H]2CN3CCC2CC3)cc1Cl` (stereo partly drawn) [Example 82, (S)-quinuclidin-3-yl (7-(3-chloro-4-isopropoxyphenyl)chroman-4-yl)carbamate]: the half-inhibitory concentration (IC50) came to 0.00286 µM in experiment [1] and 0.007 µM in experiment [2].
On the same counts, the results for `COc1ccc(-c2ccc3c(c2)OCCC3NC(=O)O[C@@H]2CN3CCC2CC3)cc1C(F)(F)F` (stereo partly drawn) [Example 83, (S)-quinuclidin-3-yl (7-(4-methoxy-3-(trifluoromethyl)phenyl)chroman-4-yl)carbamate] are 0.00393 µM and 0.0196 µM.
On the same counts, the results for `COc1cccc(OC)c1-c1ccc2c(c1)OCCC2NC(=O)O[C@@H]1CN2CCC1CC2` (stereo partly drawn) [Example 84, (S)-quinuclidin-3-yl (7-(2,6-dimethoxyphenyl)chroman-4-yl)carbamate] are 0.00279 µM and 0.00718 µM.
On the same counts, the results for `O=C(NC1CCOc2ccc(-c3ccc(F)cc3)cc21)O[C@@H]1CN2CCC1CC2` (stereo partly drawn) [Example 85, (S)-quinuclidin-3-yl (6-(4-fluorophenyl)chroman-4-yl)carbamate] are 0.00967 µM and 0.222 µM.
On to `O=C(NC1CCOc2ccc(-c3cccc(F)c3)cc21)O[C@@H]1CN2CCC1CC2` (stereo partly drawn) [Example 86, (S)-quinuclidin-3-yl (6-(3-fluorophenyl)chroman-4-yl)carbamate], for which the IC50 in experiment [1] stood at 0.00968 µM; in experiment [2] it was 0.181 µM.
On the same counts, the results for `O=C(NC1CCOc2ccc(-c3ccccc3F)cc21)O[C@@H]1CN2CCC1CC2` (stereo partly drawn) [Example 87, (S)-quinuclidin-3-yl (6-(2-fluorophenyl)chroman-4-yl)carbamate] are 0.00357 µM and 0.0987 µM.
Consider `O=C(NC1CCOc2ccc(-c3ccc(Cl)cc3)cc21)O[C@@H]1CN2CCC1CC2` (stereo partly drawn) [Example 88, (S)-quinuclidin-3-yl (6-(4-chlorophenyl)chroman-4-yl)carbamate], for which the IC50 came to 0.00941 µM in experiment [1] and 0.16 µM in experiment [2].
On the same counts, the results for `O=C(NC1CCOc2ccc(-c3cccc(Cl)c3)cc21)O[C@@H]1CN2CCC1CC2` (stereo partly drawn) [Example 89, (S)-quinuclidin-3-yl (6-(3-chlorophenyl)chroman-4-yl)carbamate] are 0.00663 µM and 0.216 µM.
On the same counts, the results for `O=C(NC1CCOc2ccc(-c3ccccc3Cl)cc21)O[C@@H]1CN2CCC1CC2` (stereo partly drawn) [Example 90, (S)-quinuclidin-3-yl (6-(2-chlorophenyl)chroman-4-yl)carbamate] are 0.00427 µM and 0.141 µM.
As for `O=C(NC1CCOc2ccc(-c3ccc(C(F)(F)F)cc3)cc21)O[C@@H]1CN2CCC1CC2` (stereo partly drawn) [Example 91, (S)-quinuclidin-3-yl (6-(4-(trifluoromethyl)phenyl)chroman-4-yl)carbamate], the values for the concentration for half-maximal inhibition (IC50) in experiment [1] and in experiment [2] were 0.00538 µM and 0.171 µM, respectively.
On the same counts, the results for `O=C(NC1CCOc2ccc(-c3cccc(C(F)(F)F)c3)cc21)O[C@@H]1CN2CCC1CC2` (stereo partly drawn) [Example 92, (S)-quinuclidin-3-yl (6-(3-(trifluoromethyl)phenyl)chroman-4-yl)carbamate] are 0.0296 µM and 0.495 µM.
On the same counts, the results for `O=C(NC1CCOc2ccc(-c3ccccc3C(F)(F)F)cc21)O[C@@H]1CN2CCC1CC2` (stereo partly drawn) [Example 93, (S)-quinuclidin-3-yl (6-(2-(trifluoromethyl)phenyl)chroman-4-yl)carbamate] are 0.00425 µM and 0.0798 µM.
Consider `O=C(NC1CCOc2ccc(-c3ccc(OC(F)(F)F)cc3)cc21)O[C@@H]1CN2CCC1CC2` (stereo partly drawn) [Example 94, (S)-quinuclidin-3-yl (6-(4-(trifluoromethoxy)phenyl)chroman-4-yl)carbamate], for which the IC50 in experiment [1] worked out at 0.00813 µM; in experiment [2], 0.408 µM.
On the same counts, the results for `O=C(NC1CCOc2ccc(-c3cccc(OC(F)(F)F)c3)cc21)O[C@@H]1CN2CCC1CC2` (stereo partly drawn) [Example 95, (S)-quinuclidin-3-yl (6-(3-(trifluoromethoxy)phenyl)chroman-4-yl)carbamate] are 0.0198 µM and 0.513 µM.
On the same counts, the results for `O=C(NC1CCOc2ccc(-c3ccccc3OC(F)(F)F)cc21)O[C@@H]1CN2CCC1CC2` (stereo partly drawn) [Example 96, (S)-quinuclidin-3-yl (6-(2-(trifluoromethoxy)phenyl)chroman-4-yl)carbamate] are 0.00855 µM and 0.0789 µM.
On the same counts, the results for `CSc1ccc(-c2ccc3c(c2)C(NC(=O)O[C@@H]2CN4CCC2CC4)CCO3)cc1` (stereo partly drawn) [Example 97, (S)-quinuclidin-3-yl (6-(4-(methylthio)phenyl)chroman-4-yl)carbamate] are 0.0115 µM and 0.502 µM.
Take `CSc1cccc(-c2ccc3c(c2)C(NC(=O)O[C@@H]2CN4CCC2CC4)CCO3)c1` (stereo partly drawn) [Example 98, (S)-quinuclidin-3-yl (6-(3-(methylthio)phenyl)chroman-4-yl)carbamate]: the IC50 came to 0.0149 µM in experiment [1] and 0.525 µM in experiment [2].
In the case of `Cc1ccc(-c2ccc3c(c2)C(NC(=O)O[C@@H]2CN4CCC2CC4)CCO3)cc1` (stereo partly drawn) [Example 99, (S)-quinuclidin-3-yl (6-(p-tolyl)chroman-4-yl)carbamate], the IC50 in experiment [1] was 0.0192 µM; in experiment [2], 0.322 µM.
